Data reported in patent US7244753B2, “Cyclooxygenase-2 selective inhibitors, compositions and methods of use” (NitroMed, Inc., priority 2002, dated 2007).

Tests used:
Human COX-1 = biological target: T1, Human COX-1 (Homo sapiens, UniProt P23219); assay: COX-1 enzyme activity in human whole blood (A23187-stimulated, thromboxane B2 EIA); assay type: cell-based; details: 100 μM test compound
T1 construct: Human blood (≈50 mL) from male or female donors who had not received any aspirin or NSAIDs for 14 days was collected; endogenous in cells; host or cells: human whole blood from donors, heparinised, stimulated with calcium ionophore A23187
Protocol: (§1) The assay for COX-1 and COX-2 enzyme activity, in the human whole blood was performed as described in Brideau et al., Inflamm Res., 45: 68-74 (1996)). Human blood (≈50 mL) from male or female donors who had not received any aspirin or NSAIDs for 14 days was collected at two local area blood donor centers and placed in polypropylene syringes containing sodium heparin (20 units per mL blood, final concentration). The blood was transported to the laboratory on ice packs and used within 1.5 hours of collection. Upon receipt in the laboratory, the blood was allowed to come to room temperature for 15 minutes prior to distribution in 1 mL aliquots per well of 24 well tissue culture plates. The plates were then placed on a gently rotating platform shaker in a 5% CO2 incubator at 37° C. for 15 minutes. Test compounds were dissolved in DMSO, at 1000 fold the final desired concentration, and further diluted, as indicated, in DMSO. One μL of each dilution of the test compound was added per well, in duplicate wells; wells not receiving test compound (e.g., basal, background or control wells) received 1 μL DMSO.
(§2) To induce COX-2, lipopolysaccharide (LPS) from E. coli (LPS, serotype 026:B6 or serotype 0127:B8, Sigma Chemical Co., St. Louis, Mo., Catalogue No. L3755 or L3129, respectively) was added at 10 μg/mL (2 μL of 5 mg/mL LPS in DMSO) to appropriate wells 15 minutes after the addition of the test compound. (Basal or background wells not incubated with LPS received 2 μL of DMSO.) For the stimulation of COX-1, the calcium ionophore, A23187 (free acid from Sigma Chemical Co., St. Louis, Mo., Catalogue No. C7522) was added at 25 μM (1 μL of 25 mM stock in DMSO) to separate wells 4.5 hours after the addition of the test compound. (Again, basal, background or control wells not stimulated with A23187 received 1 μL of DMSO.) At 5 hours after the addition of the test compound, all incubations were terminated by placement on ice and the addition of 2 mM EGTA (100 μL of 20 mM EGTA, tetrasodium, in PBS (phosphate buffered saline) without Ca^++ and Mg^++, pH 7.2)). The resulting solutions, were transferred by polyethylene transfer pipettes to 15 mL polypropylene centrifuge tubes and centrifuged at 1200 g for 10 minutes at 4° C. One hundred μL of plasma was removed from each blood sample and added to 1 mL of methanol in new 15 mL polypropylene centrifuge tubes, vortexed, and stored overnight at −20° C. The next day, the samples were centrifuged at 2000 g for 10 minutes at 4° C. and the supernatants transferred to glass tubes and evaporated to dryness. The samples were assayed for thromboxane B2 using EIA kits supplied by Cayman Chemical Co. (Ann Arbor, Mich., Catalogue No. 519031) in duplicate wells after reconstitution with EIA Buffer and appropriate dilution (2000 fold for COX-1 and 500 fold for Cox-2 samples).
The % inhibition for COX-1 and COX-2 enzyme activity in human whole blood by the test compounds, at the indicated concentrations, are given in Table 1.

Human COX-2 = biological target: T2, Human COX-2 (Homo sapiens, UniProt P35354); assay: COX-2 enzyme activity in human whole blood (LPS-induced, thromboxane B2 EIA); assay type: cell-based
T2 construct: Human blood (≈50 mL) from male or female donors who had not received any aspirin or NSAIDs for 14 days was collected; endogenous in cells; host or cells: human whole blood from donors, heparinised, COX-2 induced with E. coli LPS
T2 sequence (P35354 18-604): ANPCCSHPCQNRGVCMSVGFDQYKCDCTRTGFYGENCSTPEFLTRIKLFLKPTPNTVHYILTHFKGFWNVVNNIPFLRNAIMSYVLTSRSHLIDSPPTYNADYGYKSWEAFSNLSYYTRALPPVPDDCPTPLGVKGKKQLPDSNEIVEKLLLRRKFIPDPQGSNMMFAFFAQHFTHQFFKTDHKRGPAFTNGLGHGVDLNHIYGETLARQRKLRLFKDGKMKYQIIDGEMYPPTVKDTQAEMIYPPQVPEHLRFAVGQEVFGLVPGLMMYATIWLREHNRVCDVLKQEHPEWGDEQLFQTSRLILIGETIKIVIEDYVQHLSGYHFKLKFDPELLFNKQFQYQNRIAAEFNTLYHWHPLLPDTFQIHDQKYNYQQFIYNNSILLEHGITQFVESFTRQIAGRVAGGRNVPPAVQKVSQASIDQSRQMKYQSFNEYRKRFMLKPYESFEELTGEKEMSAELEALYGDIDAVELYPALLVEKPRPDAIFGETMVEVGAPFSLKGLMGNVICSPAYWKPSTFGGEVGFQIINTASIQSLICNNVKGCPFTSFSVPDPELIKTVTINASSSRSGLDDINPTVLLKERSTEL
Protocol: as §1, with “Human” for “The assay for COX-1 and COX-2 enzyme activity, in the human whole blood was performed as described in Brideau et al., Inflamm Res., 45: 68-74 (1996)). Human”
as §2, with “(Basal” for “To induce COX-2, lipopolysaccharide (LPS) from E. coli (LPS, serotype 026:B6 or serotype 0127:B8, Sigma Chemical Co., St. Louis, Mo., Catalogue No. L3755 or L3129, respectively) was added at 10 μg/mL (2 μL of 5 mg/mL LPS in DMSO) to appropriate wells 15 minutes after the addition of the test compound. (Basal”, “dryness.” for “dryness. The samples were assayed for thromboxane B2 using EIA kits supplied by Cayman Chemical Co. (Ann Arbor, Mich., Catalogue No. 519031) in duplicate wells after reconstitution with EIA Buffer and appropriate dilution (2000 fold for COX-1 and 500 fold for Cox-2 samples).”

T1 sequence (P23219 24-599): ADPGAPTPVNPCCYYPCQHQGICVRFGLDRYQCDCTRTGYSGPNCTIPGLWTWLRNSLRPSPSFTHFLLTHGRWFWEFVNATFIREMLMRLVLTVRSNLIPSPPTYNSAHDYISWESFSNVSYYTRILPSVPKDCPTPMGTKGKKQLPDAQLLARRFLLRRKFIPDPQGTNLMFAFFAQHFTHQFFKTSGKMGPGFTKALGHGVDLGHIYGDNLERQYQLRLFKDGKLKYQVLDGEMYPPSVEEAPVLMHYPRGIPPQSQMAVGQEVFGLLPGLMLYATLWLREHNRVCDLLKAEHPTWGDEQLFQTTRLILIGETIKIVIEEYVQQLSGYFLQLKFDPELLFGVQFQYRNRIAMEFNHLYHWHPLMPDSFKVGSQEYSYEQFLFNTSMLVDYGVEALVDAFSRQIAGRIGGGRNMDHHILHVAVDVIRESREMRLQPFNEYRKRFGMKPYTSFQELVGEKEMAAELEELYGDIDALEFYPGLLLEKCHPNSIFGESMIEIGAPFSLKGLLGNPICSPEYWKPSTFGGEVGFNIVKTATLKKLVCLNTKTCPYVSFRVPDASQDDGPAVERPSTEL

| SMILES | inhibition at 100 µM (Human COX-1) [%] | inhibition at 1 µM (Human COX-2; 1 μM test compound) [%] | inhibition at 10 µM (Human COX-2; 10 μM test compound) [%] | melting point [°C] | COX-1 Inhibition (% at 100 μM) (Human COX-1) [%] | COX-2 Inhibition (% at 1 μM) (Human COX-2; 1 μM test compound) [%] | COX-2 Inhibition (% at 10 μM) (Human COX-2; 10 μM test compound) [%] |
| --- | --- | --- | --- | --- | --- | --- | --- |
| CS(=O)(=O)c1ccc(-c2cc(CO)nn2Cc2ccccc2)cc1 [Example 3c, 1-(3-(Hydroxymethyl)-1-benzylpyrazol-5-yl)-4-(methylsulfonyl)benzene] | 25 | 10 | 15 |  |  |  |  |
| CS(=O)(=O)c1ccc(-c2cc(CO)nn2CC2CCCCC2)cc1 [Example 1g, 1-(1-(Cyclohexylmethyl)-3-(hydroxymethyl)pyrazol-5-yl)-4-(methylsulfonyl)benzene] | 65 | 0 | 45 |  |  |  |  |
| CS(=O)(=O)c1ccc(-c2cc(CCCO[N+](=O)[O-])nn2CC2CCCCC2)cc1 [Example 5c, 1-(1-(Cyclohexylmethyl)-3-(3-(nitrooxy)propyl)pyrazol-5-yl)-4-(methylsulfonyl)benzene] | 90 | 75 | 100 | 76 to 77 |  |  |  |
| CS(=O)(=O)c1ccc(-c2cc(COCCO)nn2CC2CCCCC2)cc1 [Example 2e, 4-(1-(Cyclohexylmethyl)-3-((2-hydroxyethoxy)methyl)pyrazol-5-yl)-1 (methylsulfonyl)benzene] | 65 | 25 | 65 |  |  |  |  |
| COC(=O)c1cc(-c2ccc(S(C)(=O)=O)cc2)n(Cc2ccccc2)n1 [Example 8, Methyl 5-(4-(methylsulfonyl)phenyl)-1-benzylpyrazole-3-carboxylate] | 55 | 15 | 25 | 142 to 143 |  |  |  |
| CS(=O)(=O)c1ccc(-c2ncccc2C(=O)c2cccc(F)c2)cc1 [Example 10c, 3-Fluorophenyl 2-(4-methylsulfonylphenyl)(3-pyridyl) ketone] | 5 | 55 | 50 |  |  |  |  |
| CCOC(=O)c1cccc(C(=O)c2cccnc2-c2ccc(S(C)(=O)=O)cc2)c1 [Example 12b, Ethyl 3-((2-(4-(methylsulfonyl)phenyl)-3-pyridyl)carbonyl)benzoate] | 25 | 10 | 20 | 125 to 132 |  |  |  |
| CS(=O)(=O)c1ccc(-c2cc(CO[N+](=O)[O-])nn2Cc2ccccc2)cc1 [Example 3d, 4-(Methylsulfonyl)-1-(3-((nitrooxyl)methyl)-1-benzylpyrazol-5-yl)benzene] | 55 | 20 | 40 | 93 to 94 |  |  |  |
| CS(=O)(=O)c1ccc(-c2cc(CCCO)nn2CC2CCCCC2)cc1 [Example 5b, 1-(1-(Cyclohexylmethyl)-3-(3-hydroxypropyl)pyrazol-5-yl)-4-(methylsulfonyl)benzene] | 90 | 45 | 90 |  |  |  |  |
| CS(=O)(=O)c1ccc(-c2cc(CO[N+](=O)[O-])nn2CC2CCCCC2)cc1 [Example 1h, 1-(1-(Cyclohexylmethyl)-3-((nitrooxy)methyl)pyrazol-5-yl)-4-(methylsulfonyl)benzene] | 25 | 10 | 65 | 98 to 99 |  |  |  |
| CS(=O)(=O)c1ccc(-c2cc(C(F)(F)F)cnc2C(C#N)c2ccccc2)cc1 (stereo not drawn) [Example 9b, 2-(3-(4-(methylsulfonyl)phenyl)-5-(trifluoromethyl)(2-pyridyl))-2-phenylethanenitrile] | -10 | 35 | 55 |  |  |  |  |
| C=Cc1cc(-c2ccc(S(C)(=O)=O)cc2)n(CC2CCCCC2)n1 [Example 6b, 1-(1-(Cyclohexylmethyl)-3-vinylpyrazol-5-yl)-4-(methylsulfonyl)benzene] | 30 | 70 | 100 | 136 to 138 |  |  |  |
| CS(=O)(=O)c1ccc(-c2ncccc2C(=O)c2ccccn2)cc1 [Example 11b, 2-(4-(Methylsulfonyl)phenyl)(3-pyridyl) 2-pyridyl Ketone] | 0 | 0 | 15 | 143 to 147 |  |  |  |
| CS(=O)(=O)c1ccc(-c2cc(/C=C/CO)nn2CC2CCCCC2)cc1 [Example 4d, 1-(3-((1E)-3-Hydroxyprop-1-enyl)-1-(cyclohexylmethyl)pyrazol-5-yl)-4-(methylsulfonyl)benzene] | 50 | 25 | 45 |  |  |  |  |
| CS(=O)(=O)c1ccc(-c2cc(C(F)(F)F)cnc2C(=O)c2ccccc2)cc1 [Example 9a, 3-(4-(Methylsulfonyl)phenyl)-5-(trifluoromethyl)(2-pyridyl) Phenyl Ketone] | 90 |  |  | 141 to 142 |  |  |  |
| COC(=O)/C=C/c1cc(-c2ccc(S(C)(=O)=O)cc2)n(CC2CCCCC2)n1 [Example 7, Methyl (2E)-3-(1-(cyclohexylmethyl)-5-(4-(methylsulfonyl)phenyl)pyrazol-3-yl) prop-2-enoate] |  |  |  |  | 5 | 15 | 30 |
